Among the data in the supplement of paper PMC10307832 are relative viability values, retold here.

Holding throughout (assay): relative viability (nuclei count vs DMSO), 5 days (fraction); higher = more cells survive
Compound in assay [1]: CNC(=O)c1ccccc1Sc1ccc2c(/C=C/c3ccccn3)n[nH]c2c1 [Axitinib] + COc1cc2c(Oc3ccc(NC(=O)C4(C(=O)Nc5ccc(F)cc5)CC4)cc3F)ccnc2cc1OCCCN1CCOCC1 [Foretinib] (partner 0.25 µM)
Put shortly:
(§1)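 The day after seeding in 1536-well plates, lung cancer cell lines were treated by pin tool with a single drug, or with a fixed anchor-drug dose together with five library-drug doses (not always all listed) in √10 steps. After 5 days, a combined fix-and-stain solution (final 0.05% Triton X-100, 1% formaldehyde, 1 ug/ml Hoechst) was added. Nuclei counted on 4× images gave relative viability as treated counts over vehicle counts, reported as the median of duplicate plates.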

Compound in assay [2]: CNC(=O)c1ccccc1Sc1ccc2c(/C=C/c3ccccn3)n[nH]c2c1 [Axitinib] + CC(C)C[C@H](NC(=O)[C@H](Cc1ccccc1)NC(=O)c1cnccn1)B(O)O [Bortezomib] (partner 0.002 µM)
The method in brief: as §1

Compound in assay [3]: CNC(=O)c1ccccc1Sc1ccc2c(/C=C/c3ccccn3)n[nH]c2c1 [Axitinib] + CS(=O)(=O)CCNCc1ccc(-c2ccc3ncnc(Nc4ccc(OCc5cccc(F)c5)c(Cl)c4)c3c2)o1 [Lapatinib] (partner 2 µM)
The method in brief: as §1

Compound in assay [4]: CC1=CC=C(C=C1)C(=O)CN2C3=C(CCCC3)SC2=N [Pifithrin_alpha] + CC(=O)c1c(C)c2cnc(Nc3ccc(N4CCNCC4)cn3)nc2n(C2CCCC2)c1=O [Palbociclib] (partner 0.5 µM)
Put shortly:
as §1

Regarding NCI-H1563, the relative viability in assay [1] (first compound 0.005 µM) came out at 0.934; in assay [1] (first compound 0.01581 µM), 0.918; in assay [1] (first compound 0.05 µM), 0.884; in assay [1] (first compound 0.1581 µM), 0.847; in assay [1] (first compound 0.5 µM), 0.938; in assay [2] (first compound 0.005 µM), 0.908. The relative viability in assay [2] (first compound 0.01581 µM) was 0.827; in assay [2] (first compound 0.05 µM) it was 0.846; in assay [2] (first compound 0.1581 µM), 0.876; in assay [2] (first compound 0.5 µM) it was 0.763; in assay [3] (first compound 0.005 µM), 0.956; in assay [3] (first compound 0.01581 µM), 0.85. Also, the relative viability in assay [3] (first compound 0.05 µM) was 0.931; in assay [3] (first compound 0.1581 µM), 0.863; in assay [3] (first compound 0.5 µM), 0.694.

For the cell line NCI-H1623, the relative viability in assay [1] (first compound 0.005 µM) came to 0.948; in assay [1] (first compound 0.01581 µM), 0.846; in assay [1] (first compound 0.05 µM) it was 0.758; in assay [1] (first compound 0.1581 µM) it was 0.838; in assay [1] (first compound 0.5 µM) it was 0.885.

Take NCI-H1648: the relative viability amounted to 0.221 in assay [4] (first compound 1 µM); 0.313 in assay [4] (first compound 3.162 µM); 0.305 in assay [4] (first compound 10 µM); 0.337 in assay [4] (first compound 31.62 µM); 0.296 in assay [4] (first compound 100 µM).

Take NCI-H1703: the relative viability in assay [1] (first compound 0.005 µM) stood at 0.362; in assay [1] (first compound 0.01581 µM), 0.292; in assay [1] (first compound 0.05 µM), 0.376; in assay [1] (first compound 0.1581 µM) it was 0.371; in assay [1] (first compound 0.5 µM), 0.325; in assay [2] (first compound 0.005 µM), 0.353. Also, the relative viability was 0.228 in assay [2] (first compound 0.01581 µM); 0.161 in assay [2] (first compound 0.05 µM); 0.212 in assay [2] (first compound 0.1581 µM); 0.207 in assay [2] (first compound 0.5 µM); 0.848 in assay [3] (first compound 0.005 µM); 0.423 in assay [3] (first compound 0.01581 µM). The relative viability in assay [3] (first compound 0.05 µM) turned out to be 0.274; in assay [3] (first compound 0.1581 µM) it was 0.273; in assay [3] (first compound 0.5 µM), 0.441.

Turning to NCI-H1792, the relative viability stood at 1 in assay [2] (first compound 0.005 µM); 0.982 in assay [2] (first compound 0.01581 µM); 0.952 in assay [2] (first compound 0.05 µM); 0.953 in assay [2] (first compound 0.1581 µM); 0.894 in assay [2] (first compound 0.5 µM); 0.921 in assay [3] (first compound 0.005 µM). Moreover, the relative viability in assay [3] (first compound 0.01581 µM) came out at 0.834; in assay [3] (first compound 0.05 µM) it was 1.01; in assay [3] (first compound 0.1581 µM), 0.876; in assay [3] (first compound 0.5 µM) it was 0.653; in assay [4] (first compound 3.162 µM), 0.589; in assay [4] (first compound 10 µM), 0.637. In addition, the figures for the relative viability in assay [4] (first compound 31.62 µM) and in assay [4] (first compound 100 µM) were 0.535 and 0.669, respectively.

Consider NCI-H1793, for which the relative viability in assay [1] (first compound 0.005 µM) was found to be 0.851; in assay [1] (first compound 0.01581 µM), 0.597; in assay [1] (first compound 0.05 µM) it was 0.764; in assay [1] (first compound 0.1581 µM) it was 0.65; in assay [1] (first compound 0.5 µM), 0.687; in assay [3] (first compound 0.005 µM), 0.768. For the same cell line, the relative viability in assay [3] (first compound 0.01581 µM) was found to be 0.609; in assay [3] (first compound 0.05 µM), 1.17; in assay [3] (first compound 0.1581 µM) it was 0.571; in assay [3] (first compound 0.5 µM), 0.526; in assay [4] (first compound 1 µM) it was 0.278; in assay [4] (first compound 3.162 µM), 0.3. Further, the relative viability in assay [4] (first compound 10 µM) is 0.319; in assay [4] (first compound 31.62 µM), 0.348; in assay [4] (first compound 100 µM), 0.206.

For the cell line NCI-H1944, the relative viability in assay [1] (first compound 0.005 µM) is 0.892; in assay [1] (first compound 0.01581 µM) it was 0.881; in assay [1] (first compound 0.05 µM), 0.978; in assay [1] (first compound 0.1581 µM), 0.882; in assay [1] (first compound 0.5 µM), 1; in assay [3] (first compound 0.005 µM), 0.86. For the same cell line, the relative viability stood at 0.802 in assay [3] (first compound 0.01581 µM); 0.907 in assay [3] (first compound 0.05 µM); 0.827 in assay [3] (first compound 0.1581 µM); 0.68 in assay [3] (first compound 0.5 µM); 0.326 in assay [4] (first compound 1 µM); 0.303 in assay [4] (first compound 3.162 µM). For the same cell line, the results for the relative viability in assay [4] (first compound 10 µM), in assay [4] (first compound 31.62 µM) and in assay [4] (first compound 100 µM) were 0.277, 0.233 and 0.284, respectively.

Regarding NCI-H2170, the relative viability worked out at 1.02 in assay [1] (first compound 0.005 µM); 0.716 in assay [1] (first compound 0.01581 µM); 1.03 in assay [1] (first compound 0.05 µM); 0.939 in assay [1] (first compound 0.1581 µM); 1.01 in assay [1] (first compound 0.5 µM); 0.269 in assay [3] (first compound 0.005 µM). In addition, the relative viability in assay [3] (first compound 0.01581 µM) worked out at 0.257; in assay [3] (first compound 0.05 µM) it was 0.277; in assay [3] (first compound 0.1581 µM), 0.256; in assay [3] (first compound 0.5 µM), 0.257; in assay [4] (first compound 1 µM) it was 0.369; in assay [4] (first compound 3.162 µM), 0.396. Also, the figures for the relative viability in assay [4] (first compound 10 µM), in assay [4] (first compound 31.62 µM) and in assay [4] (first compound 100 µM) were 0.35, 0.312 and 0.452, respectively.

As for NCI-H2342, the relative viability came out at 1.29 in assay [1] (first compound 0.005 µM); 1.04 in assay [1] (first compound 0.01581 µM); 0.982 in assay [1] (first compound 0.05 µM); 1.02 in assay [1] (first compound 0.1581 µM); 1.07 in assay [1] (first compound 0.5 µM); 0.516 in assay [4] (first compound 1 µM). In addition, the relative viability in assay [4] (first compound 3.162 µM) was found to be 0.494; in assay [4] (first compound 10 µM), 0.493; in assay [4] (first compound 31.62 µM), 0.53; in assay [4] (first compound 100 µM), 0.501.

Take SK-MES-1: the relative viability in assay [1] (first compound 0.005 µM) turned out to be 0.976; in assay [1] (first compound 0.01581 µM), 0.977; in assay [1] (first compound 0.05 µM), 1.02; in assay [1] (first compound 0.1581 µM), 0.925; in assay [1] (first compound 0.5 µM), 0.951; in assay [3] (first compound 0.005 µM), 0.492. The relative viability in assay [3] (first compound 0.01581 µM) amounted to 0.454; in assay [3] (first compound 0.05 µM) it was 0.53; in assay [3] (first compound 0.1581 µM) it was 0.446; in assay [3] (first compound 0.5 µM), 0.547; in assay [4] (first compound 1 µM) it was 0.294; in assay [4] (first compound 3.162 µM) it was 0.286. In addition, the results for the relative viability in assay [4] (first compound 10 µM), in assay [4] (first compound 31.62 µM) and in assay [4] (first compound 100 µM) were 0.267, 0.266 and 0.267, respectively.

Take SW 900: the relative viability in assay [1] (first compound 0.005 µM) was 1.02; in assay [1] (first compound 0.01581 µM), 0.673; in assay [1] (first compound 0.05 µM), 0.941; in assay [1] (first compound 0.1581 µM), 1.01; in assay [1] (first compound 0.5 µM), 1.12; in assay [4] (first compound 1 µM) it was 0.58. The relative viability in assay [4] (first compound 3.162 µM) was determined as 0.513; in assay [4] (first compound 10 µM), 0.453; in assay [4] (first compound 31.62 µM) it was 0.388; in assay [4] (first compound 100 µM), 0.526.
